Results published in patent US20070027143A1, “Novel substituted 2,3-benzodiazepine derivatives” (priority 2003, published 2007).
Like-named read-outs stand apart in the source and are kept apart here. Marks after values point to notes of the source that are not given here.

How the values were obtained:
[1] = system: CD1 mice; assay: Anticonvulsant activity, 4-aminopyridine induced seizures; assay type: in vivo; details: Mus musculus; po.; read-out: 4-AP ED50
Protocol: (§1) The anti-seizure activity of some of the compounds of the present invention was measured using the electroshock test (J. Pharmacol. Exp. Ther. 106:319 (1952)) and the results are shown in Table 3. The spasmolytic activity of the compounds of the present invention was investigated by using e.g., pentetrazole (J. Pharmacol. Exp. Ther. 108:168 (1953)), strychnine (J. Pharmacol. Exp. Ther. 129:75 (1960)), bemegrid, nicotine, bicuculline, 4-aminopyridine and mercapto-propionic acid for inducing the clonic-tonic seizures and lethality. The investigated compounds were administered orally in three doses using 10 male CD1 mice/dose, usually 60 min before the induction of seizures.

[2] = system: CD1 mice; assay: Anticonvulsant activity, bicuculline induced seizures; assay type: in vivo; details: Mus musculus; po.; read-out: Bicuculline ED50
Protocol: as §1

[3] = system: CD1 mice; assay: Anticonvulsant activity, bemegride induced seizures; assay type: in vivo; details: Mus musculus; po.; read-out: Bemegride ED50
Protocol: as §1

[4] = system: CD1 mice; assay: Anticonvulsant activity, pentetrazole induced seizures; assay type: in vivo; details: Mus musculus; po.; read-out: Pentetrazol ED50
Protocol: as §1

[5] = system: CD1 mice; assay: Anticonvulsant activity, 3-mercapto-propionic acid induced seizures; assay type: in vivo; details: Mus musculus; po.; read-out: 3-MPA ED50
Protocol: as §1

[6] = system: CD1 mice; assay: Muscle relaxant activity, rotarod test; assay type: in vivo; details: Mus musculus, ip
[7] = system: CD1 mice; assay: Muscle relaxant activity, inclined screen test; assay type: in vivo; details: Mus musculus, ip
[8] = system: CD1 mice; assay: Anticonvulsant activity, maximal electroshock seizure (MES) test; assay type: in vivo; details: Mus musculus, po.
Protocol: as §1

[9] = system: AMPA/kainate receptors; assay: Inhibition of AMPA induced whole-cell current in acutely isolated cerebellar Purkinje cells (patch clamp); assay type: cell-based; details: 5 μM AMPA, read-out: Inhibition of the ion-currents caused by 5 μM AMPA, IC50
Protocol: (§2) In the first model the spreading depression caused by glutamate agonists (i.e., AMPA or kainate) was studied, while in the second one the transmembrane ion-current induced by the activation of the AMPA/kainate receptors was measured directly.
The activity of the compounds of the present invention was studied on acutely isolated cerebellar Purkinje cells by measuring the whole-cell current induced by 5 μM AMPA according for example to the method described by Bleakman et al (Neuropharmacology 12:1689 (1996)).

[10] = system: AMPA receptors; assay: Inhibition of AMPA induced spreading depression in isolated chicken retina; assay type: cell-based; details: AMPA (5 μM)
Protocol: as §2
Inhibition of AMPA Induced “Spreading Depression” in Isolated Chicken Retina—
The AMPA antagonistic effect of the compounds of formula (I) or (II) was studied in the in vitro “spreading depression” model (Sheardown Brain Res. 607:189 (1993)). The AMPA antagonists prolong the latency of the development of the “spreading depression” caused by AMPA (5 μM).

[11] = system: CD1 mice; assay: Anti-tremor effect, oxotremorine induced tremor; assay type: in vivo; details: Mus musculus; po., Litchfield-Wilcoxon, limits in brackets; read-out: ED50, tremor induced by Oxotremorin 1 mg/kg ip.
[12] = system: CD1 mice; assay: Anti-tremor effect, GYKI 20039 induced tremor; assay type: in vivo; details: Mus musculus; po., Litchfield-Wilcoxon, limits in brackets; read-out: ED50, tremor induced by GYKI 20039 10 mg/kg ip.
[13] = system: CD1 mice; assay: Anticonvulsant activity, strychnine induced seizures; assay type: in vivo; details: Mus musculus; po.; read-out: Strychnine ED50
Protocol: as §1

[14] = system: CD1 mice; assay: Anticonvulsant activity, nicotine induced seizures; assay type: in vivo; details: Mus musculus; po.
Protocol: as §1

[15] = system: Lewis rats; assay: Autoimmune encephalomyelitis model, histological symptoms; assay type: in vivo; details: 7.5 mg/kg ip., day 24 after immunization
Protocol: (§3) 5-15 animals were used in each group. Their weights were 160-180 g (Lewis rats, female) and 180-220 g (Lewis rats, male). The activity of the compounds was determined according to the symptom score values, and compared to those of the control group (see Table 6). Histopathological investigations were carried out on the brain stem, the spinal cord, and the sciatic nerve (Gijbels et al., J. Clin. Invest. 94:2177 (1994)) using 5-10 animal/group.
(§4) Compounds of the invention were further investigated in the autoimmune encephalomyelitis model in rats as outlined in this description before, with the variance that 10 animals were used in each group, of weights 140-160 g (Lewis rats, female).

[16] = system: rats; assay: Inhibition of focal ischemia, middle cerebral artery occlusion (MCAO) test; assay type: in vivo
Protocol: The focal anti-ischemic activity of the compounds of formula (I) or (II) of the present invention was measured by the “middle cerebral artery occlusion” (MCAO) test (Bartus Stroke 11:2265 (1994) and Sydserff et al, Brit. J. Pharmacol. 114:1631 (1995)). […] After a histological process (TTC staining) 24 h later, the infarcted area was determined by a computer assisted scanner program and was compared to the results obtained in a control group treated with the vehicle.

[17] = system: Lewis rats; assay: Autoimmune encephalomyelitis model, neurological (clinical) symptoms; assay type: in vivo; details: for Neurological symptoms (change, %) / change in vivo at 7.5 mg/kg: 7.5 mg/kg ip.; for Neurological symptoms (change, %): day 24 after immunization; for change in vivo at 1.875 mg/kg / change in vivo at 3.75 mg/kg / change in vivo at 7.5 mg/kg: Rattus norvegicus, ip, read-out: Neurological symptoms (change compared to controls, %); for change in vivo at 1.875 mg/kg: 1.875 mg/kg ip.; for change in vivo at 3.75 mg/kg: 3.75 mg/kg ip.
Protocol: as §3, with “The compounds were administered intraperitoneally twice a day for 8 days, starting on day 10 after immunization and with an observation period until symptoms were present. 5-15” for “5-15”
as §4

[18] = 0.5 h, 30′, read-out: MES 30′ ED50
[19] = 1 h, 60 min before induction, read-out: MES (MES 60′) ED50
[20] = 2 mg/kg iv. 6x in every 30 min, first treatment 180 min after occlusion

| SMILES | ED50 [1] | ED50 [2] | ED50 [3] | ED50 [4] | ED50 [5] | ED50 [6] | ED50 [7] | melting point | ED50 [8, 18] | ED50 [8, 19] | IC50 [9] | IC50 [10] | ED50 [11] | ED50 [12] | ED50 [13] | ED50 [14] | Decrease of the infracted area in % compared to that of the control [16, 20] | change in vivo at 3.75 mg/kg ([17]; female rats, 0-8 day) | change in vivo at 3.75 mg/kg ([17]; female rats, 0-14 day) | change in vivo at 3.75 mg/kg ([17]; male rats, 0-8 day) | other results |
| --- | --- | --- | --- | --- | --- | --- | --- | --- | --- | --- | --- | --- | --- | --- | --- | --- | --- | --- | --- | --- | --- |
| Cc1cc(C2=NN(c3nncs3)[C@H](C)Cc3cc4c(cc32)OCO4)ccc1N [Example 167, (R)-5-(4-Amino-3-methylphenyl)-8-methyl-7-(1,3,4-thiadiazol-2-yl)-8,9-dihydro-7H-1,3-dioxolo-[4,5-h][2,3]benzodiazepine] | 10.8 mg/kg | 12.7 mg/kg | 8.33 mg/kg | 9.66 mg/kg | 10.3 mg/kg | 0.8 mg/kg | 4.24 mg/kg | 143 to 148 °C | 4.78 mg/kg | 5.85 mg/kg | 70 nM | 64 nM | 4.81 mg/kg | 7.73 mg/kg | 10.5 mg/kg |  |  |  |  |  |  |
| CCc1nnc(N2N=C(c3ccc(N)c(C)c3)c3cc4c(cc3C[C@H]2C)OCO4)s1 [Example 165, (R)-5-(4-Amino-3-methylphenyl)-7-(5-ethyl-1,3,4-thiadiazol-2-yl)-8-methyl-8,9-dihydro-7H-1,3-dioxolo-[4,5-h][2,3]benzodiazepine] | 8.6 mg/kg | 5.79 mg/kg | 10 mg/kg | 10.1 mg/kg | 8.53 mg/kg | 0.91 mg/kg | 2.94 mg/kg | 129 to 133 °C | 2.39 mg/kg | 3.99 mg/kg | 24 nM | 113 nM | 4.63 mg/kg | 5.34 mg/kg | 10.2 mg/kg | 18.6 mg/kg |  |  |  |  |  |
| C[C@@H]1Cc2cc3c(cc2C(c2ccc(N)cc2)=NN1c1nccs1)OCO3 [Example 61, (R)-5-(4-Aminophenyl)-8-methyl-7-(2-thiazolyl)-8,9-dihydro-7H-1,3-dioxolo[4,5-h][2,3]benzodiazepine] | 17.6 mg/kg | 31 mg/kg | 34.4 mg/kg | 32.5 mg/kg | 11 mg/kg | 5.4 mg/kg | 10.7 mg/kg | 125 to 130 °C | 11.5 mg/kg | 13.1 mg/kg | 490 nM | 1000 to 5000 nM |  |  | 35.4 mg/kg | 59.3 mg/kg | 46* % | -44% | -48% | -44% | Histological symptoms (change, %) ([15]; female rats): −5%; Histological symptoms (change, %) ([15]; male rats): −20%; Decrease of the infracted area in % compared to that of the control ([16]; 1 mg/kg iv. 6x in every 30 min, first treatment 120 min after occlusion): 63** %; Decrease of the infracted area in % compared to that of the control ([16]; 1 mg/kg iv. 6x in every 30 min, first treatment 180 min after occlusion): 16%; Neuroprotective activity when administered 3 h after the occlusion ([16]; result in words): significant activity; Neurological symptoms (change, %) ([17]; female rats): −53%; Neurological symptoms (change, %) ([17]; male rats): −54%; change in vivo at 1.875 mg/kg ([17]; female rats, 0-8 day): -18%; change in vivo at 1.875 mg/kg ([17]; female rats, 0-14 day): -7%; change in vivo at 1.875 mg/kg ([17]; male rats, 0-8 day): 13%; change in vivo at 1.875 mg/kg ([17]; male rats, 0-14 day): 5%; change in vivo at 3.75 mg/kg ([17]; male rats, 0-14 day): -46%; change in vivo at 7.5 mg/kg ([17]; female rats, 0-8 day): -56%; change in vivo at 7.5 mg/kg ([17]; female rats, 0-14 day): -53%; change in vivo at 7.5 mg/kg ([17]; male rats, 0-8 day): -60%; change in vivo at 7.5 mg/kg ([17]; male rats, 0-14 day): -63%; Activity compared to the reference compound (histopathological and pharmacological investigations) ([17]; result in words): more active than the reference compound GYKI 53773 |
| C[C@@H]1Cc2cc3c(cc2C(c2ccc(N)cc2)=NN1C1=NCCS1)OCO3 [Example 69, (R)-5-(4-Aminophenyl)-7-(4,5-dihydro-thiazol-2-yl)-8-methyl-8,9-dihydro-7H-1,3-dioxolo-[4,5-h][2,3]benzodiazepine] | 16.6 mg/kg | 18.1 mg/kg | 33.3 mg/kg | 46.9 mg/kg | 34.2 mg/kg | 1.2 mg/kg | 12.2 mg/kg | 148 to 150 °C | 8.7 mg/kg | 14.7 mg/kg | 420 nM | 900 nM |  |  | 27.7 mg/kg | 16.8 mg/kg | 28% | 43% | 58% | 35% | change in vivo at 3.75 mg/kg ([17]; male rats, 0-14 day): -40%; change in vivo at 7.5 mg/kg ([17]; female rats, 0-8 day): -29%; change in vivo at 7.5 mg/kg ([17]; female rats, 0-14 day): -24%; change in vivo at 7.5 mg/kg ([17]; male rats, 0-8 day): -51%; change in vivo at 7.5 mg/kg ([17]; male rats, 0-14 day): -50% |
| Cc1nnc(N2N=C(c3ccc(N)c(Cl)c3)c3cc4c(cc3C[C@H]2C)OCO4)s1 [Example 182, (R)-5-(4-Amino-3-chlorophenyl)-8-methyl-7-(5-methyl-1,3,4-thiadiazol-2-yl)-8,9-dihydro-7H-1,3-dioxolo-[4,5-h][2,3]benzodiazepine] | 5.44 mg/kg | 8.44 mg/kg | 7.94 mg/kg | 8.37 mg/kg | 7.57 mg/kg | 2.61 mg/kg | 5.84 mg/kg | 98 to 100 °C | 5.08 mg/kg | 6.17 mg/kg | 31 nM | 20 nM | 2.66 mg/kg | 3.64 mg/kg | 5.9 mg/kg | 24.2 mg/kg |  |  |  |  |  |
